Results as given in patent US9399017B2, “Peptide pharmaceutical for oral delivery” (Enteris BioPharma, Inc., priority 2007, dated 2016).

Key:
[1] = Plasma sCT Cmax in Beagle dogs after oral tablet (ELISA); format: in vivo; conditions: for Cmax: Beagle, dog, plasma, po, 1.7 mg, oral tablet 1.7 mg sCT
Experimental: Following application of the indicated amounts of HPMC to the indicated weight gain (in those examples utilizing the undercoat), the tablets were then sealed with an enteric coat made of Eudragit L30D-55 to the indicated further weight gain. Beagle dogs were given a tablet of the indicated combination of undercoat-enteric coat and aliquots of blood were taken at 15 minute intervals for 4 hours. Plasma was separated from the blood samples and analyzed for sCT by ELISA.

[2] = cited from earlier work

Cmax ([1]; HPMC undercoat 0%, L30D-55 enteric coat 4% tablet weight gain): 0.07 ng/mL | Cmax ([1]; HPMC undercoat 0%, L30D-55 enteric coat 7% tablet weight gain): 0.121 ng/mL | Cmax ([1]; HPMC undercoat 3%, L30D-55 enteric coat 4% tablet weight gain): 0.142 ng/mL | Cmax ([1]; HPMC undercoat 3%, L30D-55 enteric coat 7% tablet weight gain): 0.378 ng/mL | Cmax ([1]; HPMC undercoat 6%, L30D-55 enteric coat 4% tablet weight gain): 0.667 ng/mL | Cmax ([1]; HPMC undercoat 6%, L30D-55 enteric coat 7% tablet weight gain): 0.51 ng/mL | increase of sCT Cmax when amount of enteric coat was increased nearly 1.75 fold ([1]; absence of an undercoat): 1.7 fold | increase of sCT Cmax when an HPMC undercoat was included ([1]; one embodiment): more than 9 fold
SMILES: CC(C)C[C@H](NC(=O)[C@H](CCCCN)NC(=O)CNC(=O)[C@H](CC(C)C)NC(=O)[C@@H](NC(=O)[C@@H]1CSSC[C@H](N)C(=O)N[C@@H](CO)C(=O)N[C@@H](CC(N)=O)C(=O)N[C@@H](CC(C)C)C(=O)N[C@@H](CO)C(=O)N[C@@H]([C@@H](C)O)C(=O)N1)C(C)C)C(=O)N[C@@H](CO)C(=O)N[C@@H](CCC(N)=O)C(=O)N[C@@H](CCC(=O)O)C(=O)N[C@@H](CC(C)C)C(=O)N[C@@H](Cc1c[nH]cn1)C(=O)N[C@@H](CCCCN)C(=O)N[C@@H](CC(C)C)C(=O)N[C@@H](CCC(N)=O)C(=O)N[C@H](C(=O)N[C@@H](Cc1ccc(O)cc1)C(=O)N1CCC[C@H]1C(=O)N[C@@H](CCCNC(=N)N)C(=O)N[C@H](C(=O)N[C@@H](CC(N)=O)C(=O)N[C@H](C(=O)NCC(=O)N[C@@H](CO)C(=O)NCC(=O)N[C@H](C(=O)N1CCC[C@H]1C(N)=O)[C@@H](C)O)[C@@H](C)O)[C@@H](C)O)[C@@H](C)O [sCT, salmon calcitonin]
time after injection beyond which there are usually no detectable blood levels ([2]; injection at conventional dosages): more than two | peak levels at which some patients report side-effects such as flushing nausea ([2]; patients): ≥ 200 picograms per milliliter | half-life ([2]; subcutaneous administration in man): 20 to 40 min | peak serum concentration ([2]; subcutaneous administration, 100 International units): about 250 picograms per milliliter
